Test [1] has as its target T1, L-FABP (Rattus norvegicus, UniProt P02692).
T1 construct: made in house
T1 sequence (P02692 1-127): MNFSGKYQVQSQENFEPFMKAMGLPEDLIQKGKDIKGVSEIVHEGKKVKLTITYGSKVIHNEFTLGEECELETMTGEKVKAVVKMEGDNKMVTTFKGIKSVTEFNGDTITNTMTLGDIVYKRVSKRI
Description: L-FABP tyrosine fluorescence quenching. The format is binding. As to conditions: L-FABP 100 nM. How it is done:
Tyrosine fluorescence of L-FABP (100 nM) in 10 mM phosphate buffer was monitored by scanning from 290 to 400 nm, with excitation wavelength 280 nm, before and after small increments of added binding ligand. The binding curve was constructed by plotting tyrosine fluorescence intensity at 305 nm versus concentration of the ligand. K d was then calculated as described.

The test system of test [2] is mouse primary hepatocytes. Description: Hepatocyte cytosolic glucose level. Conditions: for Cytosolic glucose / Fold increase of cytosolic glucose versus no inhibitor: inhibitor 10 μg/mL; for Fold increase of cytosolic glucose by inhibitor: high extracellular glucose (20 mM); for Fold increase of cytosolic glucose with increasing glucose from 6 to 20 mM: in the presence of inhibitor 10 μg/mL. The format is cell-based. Here is the method:
(§1) Mouse hepatocytes were isolated from livers of male wild-type and L-FABP null mice as described. To study the effect of TOFA and C75 at different glucose levels, mouse hepatocytes were cultured overnight with DMEM/F-12 supplemented with 5% FBS. Cells were incubated with glucose-free DMEM supplemented with fatty acid-free BSA (40 μM), 100 nM insulin, 10 nM dexamethasone, and without (no inhibitor) or with the de novo fatty acid synthesis inhibitors C75 or TOFA (10 μg/mL) for 30 min (1 mL/well). Cells were incubated further for 5 hr with 6 or 20 mM glucose without or with the inhibitors.
Hepatocytes were plated 2 × 10^5 per well in 12-well tissue culture plates (Becton Dickinson and Company, Franklin Lakes, NJ, USA). After incubation with culture medium containing TOFA or C75 with increasing glucose level as described previously, hepatocytes were washed quickly with a cold solution of MgCl2 (100 mM) with 0.1 mM phloretin [46]. Cells were scraped from the dishes with PBS plus protease inhibitor, and cells were broken open with a probe sonicator (Sonic Dismembrator 550, Fisher Scientific, Waltham, MA, USA). Samples were sedimented at 10,000 g, 4°C for 20 min. The supernatant was used for glucose analysis with the Amplite Glucose Quantitation Kit (AAT Bioquest, Inc. Sunnyvale, CA, USA) as instructed by the manufacturer. The number of cultured primary hepatocytes in each sample was calculated based on amount of protein (Bradford Assay, Sigma, St. Louis, MO, USA) compared with reference samples with a known number of hepatocytes. Cytosolic glucose concentration was calculated using 7.4 × 10^−12 liter/cell as volume of the hepatocytes.

Test [3] relates to mouse primary hepatocytes. The experiment in a line: Hepatocyte unesterified (free) LCFA determination. The format is cell-based. As to conditions: normal physiological glucose (6 mM), inhibitor 10 μg/mL. How it is done:
as §1
Cultured mouse hepatocytes were plated 4 × 10^5 cells per well in 12-well tissue culture plates. After incubation with TOFA or C75 at different glucose levels as described previously, hepatocytes were washed with cold PBS 4x, scraped with cold PBS (with protease inhibitor), and homogenized with a probe sonicator (Sonic Dismembrator 550, Fisher Scientific, Waltham, MA, USA). A 20 μL sample was saved for protein analysis using the Bio-Rad protein assay reagent, (Bio-Rad, Hercules, CA, USA). […]
The LCFA content of each sample was measured with the Free Fatty Acid Quantification Kit from BioVision, Inc. (Mountain View, California, USA) according to manufacturer's instructions, using a standard of palmitic acid included in the kit. […]

The test system of the next test is PPARα. Conditions: COS7 cells; cited from earlier work.
Another test deals with CPT1A. More on the design: method as in PMID 39932, PMID 4051503, PMID 12060712, PMID 502765. As to conditions: rat hepatocytes, media with high glucose (11 mM); cited from earlier work.
In test [4] the target is T1, L-FABP. Description: Displacement of L-FABP-bound ANS. The format is binding. Conditions: read-out: K i, displacing L-FABP-bound ANS. How it is done: Advantage was taken of the fact that NBD-stearic acid bound to L-FABP (two ligand binding sites) as well as SCP-2 (single-ligand binding site) to design a NBD-stearic acid displacement assay that allowed determination of which fatty acid synthesis inhibitors or their CoA thioesters bound to these LCFA/LCFA-CoA binding proteins. Displacement of NBD-stearate from L-FABP and SCP-2 was determined by incubating L-FABP or SCP-2 (25 nM in 10 mM phosphate buffer) with NBD stearate (40 nM) for 12 min to obtain maximal fluorescence, followed by titration with increasing amount of ligand. From the displacement curve, the K i value was calculated as described. All experiments were carried out with a thermostated cuvette to maintain temperature at 24°C using a circulating water bath. ANS displacement assay was performed as described.

SMILES strings stand for the structures.

For the compound `CCCCCCCCCCCCCCOc1ccc(C(=O)O)o1` [TOFA, 5-tetradecyloxy-2-furancarboxylic acid], the “Quenching of L-FABP tyrosine emission (in words)” value on L-FABP [1] is given as “efficiently quenched”. Also, on L-FABP [1] (10 mM phosphate buffer, read-out: K d by L-FABP tyrosine quenching (converted)), the Kd is 57 nM. In test [2] (6 mM glucose in medium), the Cytosolic glucose is 4 mM and the “Fold increase of cytosolic glucose versus no inhibitor” value is given as ~ 2 fold. Moreover, the Cytosolic glucose in test [2] (20 mM glucose in medium) was 20 mM. Moreover, in test [2], the “Fold increase of cytosolic glucose by inhibitor” value is recorded as around 2 fold and the “Fold increase of cytosolic glucose with increasing glucose from 6 to 20 mM” value is around 5 fold. Also, the “Unesterified fatty acid level” value in test [3] was “Neither TOFA nor C75 significantly impacted”. The “Transactivation of PPARα” value with PPARα is “transactivated”. In the test with CPT1A, the “CPT1A activity and fatty acid oxidation” value is “increased”.
For `C=C1C(=O)OC(CCCCCCCC)C1C(=O)O` (stereo not drawn) [C75, 4-methylene-2-octyl-5-oxotetrahydrofuran-3-carboxylic acid], on L-FABP [4], the Ki was determined as 5590 ± 310 nM. Moreover, in test [2] (6 mM glucose in medium), the Cytosolic glucose was determined as 4 mM and the “Fold increase of cytosolic glucose versus no inhibitor” value is ~ 2 fold. For the same compound, in test [2] (20 mM glucose in medium), the Cytosolic glucose is listed as 13 mM. In test [2], the “Fold increase of cytosolic glucose by inhibitor” value is given as around 2 fold and the “Fold increase of cytosolic glucose with increasing glucose from 6 to 20 mM” value is around 4 fold. Moreover, the “Unesterified fatty acid level” value in test [3] was “Neither TOFA nor C75 significantly impacted”. Moreover, the “CPT1A activity and fatty acid oxidation” value in the test with CPT1A is “increased”.

The values are drawn from paper PMC3600304, “Inhibitors of Fatty Acid Synthesis Induce PPARα-Regulated Fatty Acid β-Oxidative Genes: Synergistic Roles of L-FABP and Glucose” (PPAR Research, 2013).
